Legend:
MCF-7 cells = assay: Annexin V-FITC/PI apoptosis assay, MCF-7; type: cell-based, human; settings: for Early Apoptotic [E+−] / Late Apoptotic [E++] / Living Cells [E−−] / Necrotic Cells [E−+] / Single Cells in Gate B: MCF-7, 24 h
Protocol: MCF-7 and MDA-MB-231 cells were seeded at a density of 5 × 10^4 per well on 24-well plates and incubated for 24 h (37 °C, 5% CO2) to obtain 70 % confluency. Then, the medium (control) or medium with the tested compounds in a volume of 250 μL was added and incubated for another 24 h. The cells were harvested using accutase (Sigma Aldrich, St. Louis, MO, USA) as a detaching reagent, collected to Eppendorf tubes and centrifuged (1100 rpm, 5 min). Afterwards, the cells were resuspended in 1 mL of a cold cell-staining buffer (Biolegend, London UK) and washed twice with a cell-staining buffer. The final step included suspension of the cell pellets in 100 μL of a binding buffer, staining with propidine iodide (PI; 10 μL) and FITC-annexin solutions (AV; 5 μL) (FITC Annexin V Apoptosis Detection Kit with PI (Biolegend, UK)). The samples were incubated for 20 min at room temperature in the dark, followed by an analysis conducted on a cytometer (CytoFlex, blue laser, 480 nm, Beckman-Coulter, Indianapolis, IN, USA). The results were analyzed using Kaluza 2.1 (Beckman-Coulter) software.
Annexin V (−) and PI (−) cells were considered living cells, annexin V (+) and PI (−) as early-apoptotic cells, annexin V (+) and PI (+) as late-apoptotic cells and annexin V (−) and PI (+) as necrotic cells.
The experiments were conducted in triplicates (n = 3). The coefficients of variation for the assay were determined (CV = 0.97–13.62%, depending on the calculated cell population).

MDA-MB-231 cells = assay: Cell cycle analysis (PI, flow cytometry), MDA-MB-231; type: cell-based, human; settings: MDA-MB-231, 24 h, 2600 µmol/L (IC50 value)
Protocol: MCF-7 and MDA-MB-231 cells were seeded in 6-well plates at a density of 2 × 10^5 cells per well and cultured for 24 h under standard conditions (with 2 mL of the medium). Next, cells were exposed to the tested compounds at concentrations corresponding to IC50. After 24 h of treatment, control and treated cells were then collected (washed with cold PBS and treated with accutase), transferred to Eppendorf tubes and centrifuged (1100 rpm, 5 min, 5 °C). The supernatant was discarded, cold PBS was added (1 mL) and the cells were centrifuged (1200 rpm, 5 min). The solution was removed, and the cells were fixed in cold 70% ethanol at 4 °C. Prior to the analysis, the cells were centrifuged (3600 rpm, 5 min) and washed twice with PBS. The solution was discarded, the pellets were suspended in 200 µL of PBS and incubated with ribonuclease at 37 °C (25 µL, final concentration in a sample was 100 µg/mL) for 30 min and stained with propidine iodide (12.5 µL, final concentration in a sample was 50 µg/mL) in darkness at room temperature for additional 20 min. The final volume of the sample was 250 µL.
DNA content and the number of cells in individual cell cycle phases was measured by flow cytometry (CytoFlex, blue laser, 480 nm, Beckman-Coulter, Indianapolis, IN, USA). Cells (20,000) were analyzed from each sample. The percentage of cells in each cell cycle phase was calculated from live cells that were expressed as 100%. The data are presented as the mean ± SD of three independent experiments. The coefficients of variation for the assay were established (CV = 0.37–11.78%, depending on the cell population).

[1] = IC50 (Comp. 1 13, Comp. 4 430, Comp. 7 55 μmol/L)
[2] = ½ × IC50 (Comp. 1 6.5, Comp. 4 215, Comp. 7 27.5 μmol/L)
[3] = MCF-7, 430 uM, representative cytogram Figure 7A
[4] = ½ × IC50 (Comp. 1 6.5, Comp. 4 215, Comp. 7 27.5 μmol/L), listed as Comp. 4

Structure (SMILES)	Early Apoptotic [E+−] (MCF-7 cells; [1])	Late Apoptotic [E++] (MCF-7 cells; [1])	Living Cells [E−−] (MCF-7 cells; [1])	Necrotic Cells [E−+] (MCF-7 cells; [1])	Single Cells in Gate B (MCF-7 cells; [1])	Early Apoptotic [E+−] (MCF-7 cells; [2])	Late Apoptotic [E++] (MCF-7 cells; [2])	Living Cells [E−−] (MCF-7 cells; [2])	Necrotic Cells [E−+] (MCF-7 cells; [2])	Single Cells in Gate B (MCF-7 cells; [2])	further results
CN(C)C(=N)N=C(N)NS(=O)(=O)c1ccccc1Cl [Compound 1]	35.79 ± 3.78 %	33.84 ± 3.17 %	29.96 ± 6.41 %	0.41 ± 0.02 %	82.66 ± 0.68 %	27.59 ± 1.03 %	38.93 ± 3.46 %	32.82 ± 4.50 %	0.67 ± 0.08%	77.51 ± 0.92 %	–
CN(C)C(=N)N=C(N)NS(=O)(=O)c1ccccc1Br [Compound 4]	22.71 ± 2.11 %	60.16 ± 2.21%	16.84 ± 1.93 %	0.29 ± 0.09 %	83.19 ± 0.40 %	30.69 ± 3.01%	34.69 ± 1.51%	34.17 ± 3.88%	0.45 ± 0.15 %	78.90 ± 0.11 %	Early apoptosis (representative cytogram) (MCF-7 cells; [3]): 24.99%; Late apoptosis (representative cytogram) (MCF-7 cells; [3]): 59.54%; Live cells (representative cytogram) (MCF-7 cells; [3]): 15.26%; Necrotic cells (representative cytogram) (MCF-7 cells; [3]): 0.21%; Late Apoptotic [E++] (MCF-7 cells; IC50 (Comp. 1 13, Comp. 4 430, Comp. 7 55 μmol/L), listed as Comp. 4): 60.16 ± 2.21 %; Early Apoptotic [E+−] (MCF-7 cells; [4]): 30.69 ± 3.01 %; Late Apoptotic [E++] (MCF-7 cells; [4]): 34.69 ± 1.51 %; Living Cells [E−−] (MCF-7 cells; [4]): 34.17 ± 3.88 %
CN(C)C(=N)N=C(N)NS(=O)(=O)c1ccccc1F [Compound 7]	24.35 ± 2.19 %	43.24 ± 4.09 %	31.88 ± 4.77 %	0.54 ± 0.01 %	79.48 ± 0.82 %	23.59 ± 1.57 %	35.98 ± 4.64 %	39.85 ± 5.67 %	0.57 ± 0.03 %	78.97 ± 0.51 %	G0/G1 (MDA-MB-231 cells): 64.31 ± 1.13 %; G2/M (MDA-MB-231 cells): 12.24 ± 0.10 %; S (MDA-MB-231 cells): 19.99 ± 0.97 %; Sub G0/G1 (MDA-MB-231 cells): 3.41 ± 0.08 %
